Test results: PubChem BioAssay AID1996
In brackets after ≈: the same amount, converted by molar mass.

Settings: buffer; pH 7.4; 200.0 µM

| Compound | solubility kinetic [µg/mL] |
| --- | --- |
| COc1ccc(NS(=O)(=O)c2cccc(C(=O)N3CCN(C(=O)c4ccco4)CC3)c2)cc1 | 68.1 (≈ 145 µM) |
| Nc1cc(=O)[nH]c(SCC(=O)c2ccc(F)cc2)n1 | > 41.9 |
| CN(C)c1ccc(C(=S)N2CCCC2)cc1Br | 44 (≈ 140 µM) |
| C=CC[C@H]1CC(C)=C[C@H](CC=C)[NH2+]1.[Cl-] | > 32.1 |
| CCc1noc(C)c1C(=O)Nc1ccc(C(F)(F)F)cc1 | 7.5 (≈ 25.1 µM) |
| CSc1ncccc1C(=O)Nc1cccc(S(=O)(=O)N2CCCC2)c1 | > 56.6 |
| Clc1ccccc1Nc1nc2ccccc2o1 | 2.3 (≈ 9.4 µM) |
| Cc1cc(C)nc(/N=C(\N)N2CCc3ccccc32)n1 | 37.1 (≈ 139 µM) |
| Cc1nc(Nc2ccccc2F)c2oc3ccccc3c2n1 | 0.3 (≈ 1.02 µM) |
| O=Cc1cnc(N2CCN(c3ccccc3)CC2)s1 | > 41 |
| O=C(CNC(=O)c1cccs1)c1ccc(Br)cc1 | 17.9 (≈ 55.2 µM) |
| COc1ccccc1CC(=O)N1CCN(CCc2ccccc2)CC1 | > 50.8 |
| O=Cc1c(Nc2ccccc2Cl)nc2ccccn2c1=O | < 0.2 |
| COc1cc2c(cc1OC)C(c1ccccc1Cl)N(C)CC2 (stereo not drawn) | 36.4 (≈ 115 µM) |
| Cc1ccc(CN2C(=O)CSC2c2cccnc2)cc1 (stereo not drawn) | > 42.7 |
| Cn1c(CO)cnc1S(=O)(=O)Cc1ccc(Cl)cc1 | > 45.1 |
| Cc1ccc(NC(=O)c2nsc(Cl)c2Cl)cc1 | < 0.3 |
| COc1ccccc1NC(=S)NC(C)C(c1cccs1)N1CCOCC1 (stereo not drawn) | > 58.7 |
| CCOc1ccc(Oc2ccc(Cl)cc2N)cc1.Cl | 4.5 |
| CC(C)Cc1ccc(C(C)C(N)=Nc2ccc(O)cc2)cc1.Cl (stereo not drawn) | > 49.9 |
| O=C(/C=C/c1ccc(F)cc1)NC(=S)NC1CCCCC1 | 0.5 (≈ 1.63 µM) |

The next lines start with the values.

| solubility kinetic [µg/mL] | Compound |
| --- | --- |
| < 0.7 | CC(C)CC(=O)NC(c1ccccc1)c1c(O)ccc2ccccc12 (stereo not drawn) |
| 2.8 (≈ 7.44 µM) | O=C(N/C=C\n1cnc2cc(C(F)(F)F)ccc21)c1ccc([N+](=O)[O-])cc1 |
| 28 (≈ 139 µM) | Cc1cccc(-c2nc(N)nc(N)n2)c1 |
| 5.7 (≈ 16.9 µM) | N#Cc1c(N)nc2c(c1-c1ccc(F)cc1)c(=O)nc1sccn12 |
| > 43.6 | CC1CCCCN1C(=O)CSc1nnc2ccccn12 (stereo not drawn) |
| 1.4 (≈ 3.66 µM) | CCCCCC1CC(CC(=O)NC(=S)Nc2ccccc2Cl)C(=O)O1 (stereo not drawn) |
| > 46.9 | CS(=O)(=O)Nc1ccccc1C(=O)OCC(=O)NC1CC1 |
| > 45 | O=C(Nc1cc(=O)[nH]c(=O)[nH]1)c1cc(Cl)ccc1Cl |
| 47 (≈ 121 µM) | CN(C)S(=O)(=O)c1cccc(C(=O)Nc2ccccc2C(=O)NC2CC2)c1 |
| > 46.1 | COc1ccc(OCC(=O)OC(C)CN2CCCCC2)cc1 (stereo not drawn) |
| > 38.7 | COc1ccc(NC(=O)c2ccc(C)cc2)c[n+]1[O-] |
| 24.3 (≈ 86.7 µM) | c1ccc(CCCN2CCN(c3ccccc3)CC2)cc1 |
| > 41.3 | CCC(=O)Nc1cccc(C(=O)Nc2nccs2)c1 |
| > 42.2 | O=c1[nH]cc(S(=O)(=O)NCc2ccccc2)c(=O)[nH]1 |
| 31 (≈ 107 µM) | O=C(COc1ccc(Cl)cc1Cl)N1CCNC1=O |
| > 45.7 | CN1CCC(N(C)S(=O)(=O)c2ccc(F)cc2F)CC1 |
| 19.2 (≈ 66.4 µM) | O=C(Cc1c(Cl)cccc1Cl)NC1=NCCS1 |
| > 47 | CCCNC(=O)[C@H](C)NC(=O)c1ccc(Br)cc1 |
| > 45.8 | Cc1cccc(C(=O)OCC(=O)N2CC(C)OC(C)C2)c1C (stereo not drawn) |
| 6.3 (≈ 15.5 µM) | O=C(COC(=O)c1ccc(F)c(S(=O)(=O)N2CCOCC2)c1)c1ccccc1 |
| > 41.5 | Cc1ccc2[nH]c3c(c2c1)CCCC3NC(=O)CCl (stereo not drawn) |
| 6 (≈ 18.3 µM) | c1ccc(OCc2noc(CN3CC[C@@H]4CCCC[C@H]4C3)n2)cc1 |
| 5.2 (≈ 15.7 µM) | O=C(Cc1ccccc1)Nc1ccc(NC(=O)c2ccccc2)nc1 |
| 25.8 | Cl.Clc1cccc2c3c([nH]c12)CCNC3 |
| 21.6 (≈ 55.6 µM) | NS(=O)(=O)c1cccc(C(=O)OCC(=O)NC2CCCc3ccccc32)c1 (stereo not drawn) |
| 4.5 (≈ 13 µM) | O=C1COc2ccc(C(=O)COC(=O)c3ccccc3Cl)cc2N1 |
| > 42.2 | CCc1nc2cccnc2n1-c1ccc(CC(=O)O)cc1 |
